Reference: patent US9845322B2 (Hoffmann-La Roche Inc., priority 2016, dated 2017)

Each molecule was assayed on HBsAg secretion in HepG2.2.15 cells (assay: HBsAg assay (chemiluminescence immunoassay of secreted HBsAg in culture supernatant)). Details: HepG2.2.15 cells; concentration at which HBsAg secretion was reduced by 50% compared to the no drug control; read-out: IC50 (HBsAg assay).
Assay type: cell-based, HBV
Outline: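 HepG2.2.15 cells (1.5×10^4/well, duplicate) treated with three-fold compound dilutions, 1% DMSO final, DMSO as no-drug control. Secreted HBsAg in supernatant quantified semi-quantitatively by chemiluminescence immunoassay; IC50 is concentration reducing HBsAg 50% versus no-drug control.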

SMILES	IC50 [nM]
CC1c2cnc(-c3ncccn3)nc2CCN1c1cc(F)c(F)c(OCCCCCCN)c1 (stereo not drawn) [Example 59, 6-[2,3-difluoro-5-(5-methyl-2-pyrimidin-2-yl-7,8-dihydro-5H-pyrido[4,3-d]pyrimidin-6-yl)phenoxy]hexan-1-amine]	75
CC1c2cnc(-c3ncccn3)nc2CCN1c1cc(F)c(F)c(OCC(N)=O)c1 (stereo not drawn) [Example 66, 2-[2,3-difluoro-5-(5-methyl-2-pyrimidin-2-yl-7,8-dihydro-5H-pyrido[4,3-d]pyrimidin-6-yl)phenoxy]acetamide]	168
COc1cc(F)cc(N2CCc3nc(-c4ncccn4)ncc3C2C)c1 (stereo not drawn) [Example 72, 6-(3-fluoro-5-methoxy-phenyl)-5-methyl-2-pyrimidin-2-yl-7,8-dihydro-5H-pyrido[4,3-d]pyrimidine]	22

Same assay, conditions: Hepatitis B virus, HepG2.2.15, HepG2.2.15 cells; concentration at which HBsAg secretion was reduced by 50% compared to the no drug control; read-out: IC50 (HBsAg assay)

SMILES	IC50 [nM]
CNC(=O)CCCOc1cc(N2CCc3nc(-c4ncccn4)ncc3C2C)cc(F)c1F (stereo not drawn) [Example 53, 4-[2,3-difluoro-5-(5-methyl-2-pyrimidin-2-yl-7,8-dihydro-5H-pyrido[4,3-d]pyrimidin-6-yl)phenoxy]-N-methyl-butanamide]	103
CC1c2cnc(-c3ncccn3)nc2CCN1c1cc(F)c(F)c(OCCCCCCCCNC(=O)OC(C)(C)C)c1 (stereo not drawn) [Example 54, tert-butyl N-[8-[2,3-difluoro-5-(5-methyl-2-pyrimidin-2-yl-7,8-dihydro-5H-pyrido[4,3-d]pyrimidin-6-yl)phenoxy]octyl]carbamate]	146
CC1c2cnc(-c3ncccn3)nc2CCN1c1cc(F)c(F)c(OCCCCCCCCN)c1 (stereo not drawn) [Example 55, 8-[2,3-difluoro-5-(5-methyl-2-pyrimidin-2-yl-7,8-dihydro-5H-pyrido[4,3-d]pyrimidin-6-yl)phenoxy]octan-1-amine]	113
CC1c2cnc(-c3ncccn3)nc2CCN1c1cc(F)c(F)c(OCCCCCNC(=O)OC(C)(C)C)c1 (stereo not drawn) [Example 56, tert-butyl N-[5-[2,3-difluoro-5-(5-methyl-2-pyrimidin-2-yl-7,8-dihydro-5H-pyrido[4,3-d]pyrimidin-6-yl)phenoxy]pentyl]carbamate]	55
CC1c2cnc(-c3ncccn3)nc2CCN1c1cc(F)c(F)c(OCCCCCN)c1 (stereo not drawn) [Example 57, 5-[2,3-difluoro-5-(5-methyl-2-pyrimidin-2-yl-7,8-dihydro-5H-pyrido[4,3-d]pyrimidin-6-yl)phenoxy]pentan-1-amine]	110
CC1c2cnc(-c3ncccn3)nc2CCN1c1cc(F)c(F)c(OCCCCCCNC(=O)OC(C)(C)C)c1 (stereo not drawn) [Example 58, tert-butyl N-[6-[2,3-difluoro-5-(5-methyl-2-pyrimidin-2-yl-7,8-dihydro-5H-pyrido[4,3-d]pyrimidin-6-yl)phenoxy]hexyl]carbamate]	193
COC(=O)CCCCOc1cc(N2CCc3nc(-c4ncccn4)ncc3C2C)cc(F)c1F (stereo not drawn) [Example 62, methyl 5-[2,3-difluoro-5-(5-methyl-2-pyrimidin-2-yl-7,8-dihydro-5H-pyrido[4,3-d]pyrimidin-6-yl)phenoxy]pentanoate]	494
CC1c2cnc(-c3ncccn3)nc2CCN1c1cc(F)c(F)c(OCCCCC(=O)O)c1 (stereo not drawn) [Example 63, 5-[2,3-difluoro-5-(5-methyl-2-pyrimidin-2-yl-7,8-dihydro-5H-pyrido[4,3-d]pyrimidin-6-yl)phenoxy]pentanoic acid]	447
CC1c2cnc(-c3ncccn3)nc2CCN1c1cc(F)c(F)c(OCC(=O)O)c1 (stereo not drawn) [Example 65, 2-[2,3-difluoro-5-(5-methyl-2-pyrimidin-2-yl-7,8-dihydro-5H-pyrido[4,3-d]pyrimidin-6-yl)phenoxy]acetic acid]	16700
CC1c2cnc(-c3ncccn3)nc2CCN1c1cc(F)c(F)c(OCC(F)(F)F)c1 (stereo not drawn) [Example 69, 6-[3,4-difluoro-5-(2,2,2-trifluoroethoxy)phenyl]-5-methyl-2-pyrimidin-2-yl-7,8-dihydro-5H-pyrido[4,3-d]pyrimidine]	33
CC1c2cnc(-c3ncccn3)nc2CCN1c1cc(F)c(F)c(OCC(F)F)c1 (stereo not drawn) [Example 70, 6-[3-(2,2-difluoroethoxy)-4,5-difluoro-phenyl]-5-methyl-2-pyrimidin-2-yl-7,8-dihydro-5H-pyrido[4,3-d]pyrimidine]	26
CC1c2cnc(-c3ncccn3)nc2CCN1c1cc(F)c(F)c(OC(F)F)c1 (stereo not drawn) [Example 71, 6-[3-(difluoromethoxy)-4,5-difluoro-phenyl]-5-methyl-2-pyrimidin-2-yl-7,8-dihydro-5H-pyrido[4,3-d]pyrimidine]	68
CC1c2cnc(-c3ncccn3)nc2CCN1c1cc(F)c(F)c(OCC2CCOC2)c1 (stereo not drawn) [Example 75, 6-[3,4-difluoro-5-(tetrahydrofuran-3-ylmethoxy)phenyl]-5-methyl-2-pyrimidin-2-yl-7,8-dihydro-5H-pyrido[4,3-d]pyrimidine]	21
CC1c2cnc(-c3ncccn3)nc2CCN1c1cc(F)c(F)c(OCC2COC2)c1 (stereo not drawn) [Example 76, 6-[3,4-difluoro-5-(oxetan-3-ylmethoxy)phenyl]-5-methyl-2-pyrimidin-2-yl-7,8-dihydro-5H-pyrido[4,3-d]pyrimidine]	28
CC1c2cnc(-c3ncccn3)nc2CCN1c1cc(F)c(F)c(OCC2(CO)CC2)c1 (stereo not drawn) [Example 77, [1-[[2,3-difluoro-5-(5-methyl-2-pyrimidin-2-yl-7,8-dihydro-5H-pyrido[4,3-d]pyrimidin-6-yl)phenoxy]methyl]cyclopropyl]methanol]	105
CC1c2cnc(-c3ncccn3)nc2CCN1c1cc(F)c(F)c(OCCCS(=O)(=O)O)c1 (stereo not drawn) [Example 78, 3-[2,3-difluoro-5-(5-methyl-2-pyrimidin-2-yl-7,8-dihydro-5H-pyrido[4,3-d]pyrimidin-6-yl)phenoxy]propane-1-sulfonic acid]	976
CC1c2cnc(-c3ncccn3)nc2CCN1c1cc(F)c(F)c(OCCC2COC2)c1 (stereo not drawn) [Example 79, 6-[3,4-difluoro-5-[2-(oxetan-3-yl)ethoxy]phenyl]-5-methyl-2-pyrimidin-2-yl-7,8-dihydro-5H-pyrido[4,3-d]pyrimidine]	15
CC1c2cnc(-c3ncccn3)nc2CCN1c1cc(F)c(F)c(OCCCN2CCOCC2=O)c1 (stereo not drawn) [Example 80]	71
CC1c2cnc(-c3ncccn3)nc2CCN1c1cc(F)cc(C(F)(F)F)c1 (stereo not drawn) [Example 81, 6-[3-fluoro-5-(trifluoromethyl)phenyl]-5-methyl-2-pyrimidin-2-yl-7,8-dihydro-5H-pyrido[4,3-d]pyrimidine]	131
CC1c2cnc(-c3ncccn3)nc2CCN1c1cc(F)c(F)c(OCC2CC2(F)F)c1 (stereo not drawn) [Example 82]	30
CC1c2cnc(-c3ncccn3)nc2CCN1c1cc(F)c(F)c(OCC(=O)NC2CCOC2)c1 (stereo not drawn) [Example 83, 2-[2,3-difluoro-5-(5-methyl-2-pyrimidin-2-yl-7,8-dihydro-5H-pyrido[4,3-d]pyrimidin-6-yl)phenoxy]-N-tetrahydrofuran-3-yl-acetamide]	190
CC1c2cnc(-c3ncccn3)nc2CCN1c1cc(F)c(F)c(OCC(=O)N2CCOCC2)c1 (stereo not drawn) [Example 84, 2-[2,3-difluoro-5-(5-methyl-2-pyrimidin-2-yl-7,8-dihydro-5H-pyrido[4,3-d]pyrimidin-6-yl)phenoxy]-1-morpholino-ethanone]	266
CCOC(=O)CCCCCCOc1cc(N2CCc3nc(-c4ncccn4)ncc3C2C)cc(F)c1F (stereo not drawn) [Example 85, ethyl 7-[2,3-difluoro-5-(5-methyl-2-pyrimidin-2-yl-7,8-dihydro-5H-pyrido[4,3-d]pyrimidin-6-yl)phenoxy]heptanoate]	156
CC1c2cnc(-c3ncccn3)nc2CCN1c1cc(F)c(F)c(OCC2CC2)c1 (stereo not drawn) [Example 88, 6-[3-(cyclopropylmethoxy)-4,5-difluoro-phenyl]-5-methyl-2-pyrimidin-2-yl-7,8-dihydro-5H-pyrido[4,3-d]pyrimidine]	27
CC1c2cnc(-c3ncccn3)nc2CCN1c1cc(F)c(F)c(OCC2CCOCC2)c1 (stereo not drawn) [Example 89, 6-[3,4-difluoro-5-(tetrahydropyran-4-ylmethoxy)phenyl]-5-methyl-2-pyrimidin-2-yl-7,8-dihydro-5H-pyrido[4,3-d]pyrimidine]	21
CC1c2cnc(-c3ncccn3)nc2CCN1c1cc(F)c(F)c(OCCCNC(=O)OC(C)(C)C)c1 (stereo not drawn) [Example 90, tert-butyl N-[3-[2,3-difluoro-5-(5-methyl-2-pyrimidin-2-yl-7,8-dihydro-5H-pyrido[4,3-d]pyrimidin-6-yl)phenoxy]propyl]carbamate]	22
CC1c2cnc(-c3ncccn3)nc2CCN1c1cc(F)c(F)c(OCCCN)c1 (stereo not drawn) [Example 91, 3-[2,3-difluoro-5-(5-methyl-2-pyrimidin-2-yl-7,8-dihydro-5H-pyrido[4,3-d]pyrimidin-6-yl)phenoxy]propan-1-amine]	483
CC(=O)NCCCOc1cc(N2CCc3nc(-c4ncccn4)ncc3C2C)cc(F)c1F (stereo not drawn) [Example 92, N-[3-[2,3-difluoro-5-(5-methyl-2-pyrimidin-2-yl-7,8-dihydro-5H-pyrido[4,3-d]pyrimidin-6-yl)phenoxy]propyl]acetamide]	54
CC1c2cnc(-c3ncccn3)nc2CCN1c1cc(F)c(F)c(OCCCNS(=O)(=O)C2CC2)c1 (stereo not drawn) [Example 93, N-[3-[2,3-difluoro-5-(5-methyl-2-pyrimidin-2-yl-7,8-dihydro-5H-pyrido[4,3-d]pyrimidin-6-yl)phenoxy]propyl]cyclopropanesulfonamide]	61
COCCS(=O)(=O)NCCCOc1cc(N2CCc3nc(-c4ncccn4)ncc3C2C)cc(F)c1F (stereo not drawn) [Example 94, N-[3-[2,3-difluoro-5-(5-methyl-2-pyrimidin-2-yl-7,8-dihydro-5H-pyrido[4,3-d]pyrimidin-6-yl)phenoxy]propyl]-2-methoxy-ethanesulfonamide]	70
